Data from patent US8501679B2, “Cyclic, cystein-free protein” (priority 2007, dated 2013).
“Also recorded” adds a separate entry of the source. Where a SMILES comes first, the peptide text is derived from it. Bridges are numbered along the chain shown (N, C = ends).

How the values were obtained:
[1] = tested on: pulmonary oedema / acute lung injury in Wistar rats; test: Experimental animal study pulmonary oedema: lungs rinsed with acidified saline, arterial oxygen content; assay type: in vivo, rat; conditions: for improvement in the lung function (increased oxygen content in arterial blood): laboratory animals, injected into the lungs as a fog or aqueous solution, within 3 to 5 hours; for oxygen content of the arterial blood, % relative to the value before rinsing the lungs / oxygen content in the blood after administering protein: rat; for oxygen content of the arterial blood, % relative to the value before rinsing the lungs: 125 μg protein intratracheal, 180 minutes after rinsing the lungs, 20% at 60 minutes and without protein; for oxygen content in the blood after administering protein: intratracheal as a fog one hour after lung rinsing, FIG. 3A/3B
Protocol: For the simulation of an acute lung injury and for the formation of a pulmonary oedema, the lungs of laboratory animals, e.g., mice or rats, can be rinsed several times with an acidified saline solution in a manner common in laboratories (for example, according to Isik F. et al., Eur J Cardiothorac Surg (2005); 28: 301-305). The result is a decrease in lung function.
Male Wistar rats (weighing from 250 g to 350 g) are anesthetized with Rompun® (0.02 ml/100 g) and Ketavet® (0.1 ml/100 g). The respiration is done with a cycle of 72 blows/minute, with an inhalation time of 0.2 seconds and an exhalation time of 0.5 seconds. The body temperature ranges, on average, from 37° C. to 39° C. Under normal conditions, the PaO2 (arterial oxygen partial pressure) ranges from 500 to 550 mm Hg.
For the simulation of an acute lung injury and for the formation of a pulmonary oedema, the lungs are rinsed 7 to 9 times with an acidified saline solution (pH 5).
After one hour, the proteins comprising amino acid sequence SEQ ID NO:1 or SEQ ID NO:2, dissolved in sterile saline solution, are administered intratracheally as a fog (maximum volume administered: 0.5 ml).
At intervals of 60 minutes each, arterial blood (0.1 ml) is withdrawn from the animals, and the oxygen content is determined in % relative to the normal value.
The verification of the stimulating effect of a protein according to the present invention, e.g., of a protein comprising amino acid sequence SEQ ID NO:1, SEQ ID NO:2 or SEQ ID NO:3, on the lung function is made via experimental animal studies in which a pulmonary oedema is induced. The experimental procedure is described in Example 5.
For the intratracheal inhalation, 125 μg protein are, in each case, dissolved in 150 mM saline solution pH 7.3. The oxygen content of the arterial blood is measured immediately before rinsing the lungs, 60 minutes after rinsing the lungs and 180 minutes after rinsing the lungs. The oxygen content immediately before rinsing the lungs is determined to be 100%. 60 minutes after the respective final lung rinsing, the oxygen content in the blood amounts to, on average, only 20%. Within 3 hours, the percentage oxygen content rises to values of […]

[2] = tested on: human immune cells in fresh blood (IL-6 release); test: Determination of inflammatory parameters: release of Interleukin-6 from human fresh blood (ELISA); assay type: cell-based; conditions: for release of the inflammation marker IL-6: human immune cells from blood incubated with the substance; for Concentration of Interleukin-6 (average of three measurements): human fresh blood, 24 hours at 37° C.
Protocol: For the examination, human immune cells from the blood are mixed with protein according to the present invention at a small concentration and are incubated in a manner common in laboratories. Subsequently, marker proteins for inflammations are determined in cell-free culture media by conventional methods.
Fresh human blood has a very sensitive reaction to pro-inflammatory molecules, among other things, with a release of the inflammation marker Interleukin-6 (IL-6). For determining the pro-inflammatory reaction, samples of human fresh blood at concentrations of the protein comprising amino acid sequence SEQ ID NO:2 were incubated at the following concentrations from 1 ng/ml to 10 μg/ml. After an incubation of 24 hours at 37° C., the inflammation marker Interleukin-6 was quantitatively determined in the solution via ELISA. LPS served as a positive control (concentrations of 3 ng/ml and 100 ng/ml).
In doing so, the measured data, which are indicated in TABLE 1 and which show the influence of the peptide protein comprising amino acid sequence SEQ ID NO:2 in comparison to LPS on the release of the inflammation marker Interleukin-6 from blood cells, were obtained.

[3] = tested on: sodium ion channels of H441 cells; test: Activation of ion channels of human epithelial cells, patch-clamp (whole cell / cell-attached); assay type: cell-based; conditions: FIG. 2A/2B
Source text: Furthermore, a method common in laboratories is to detect the activation of ion channels by means of patch-clamp experiments, and this is described, for example, in Clunes M. T. et al, J Physiol Volume 557, No. 3, 809-819 (Jun. 15, 2004). For patch-clamp examinations of ion channels, a glass cannula is stretched thin and filled with a neutral buffer solution. The glass cannula (patch-clamp pipette) is carefully pressed onto an intact epithelial cell. A piece of membrane is located below the pipette. An electrical resistance is thereby produced between the interior of the pipette and the external solution. An electrode attached to a sensitive amplifier dips into the pipette solution.
The electrophysiological experiments were performed on human H441 cells. H441 cells are human lung epithelial cells which are involved in the diffusion of water and electrolytes in the lungs.
The H441 cells were obtained from the American Tissue Culture Collection and cultivated in conventional cell culture vessels in RPMI 1640 medium (Invitrogen). […]
This protocol was carried out by adding proteins comprising amino acid sequence SEQ ID NO:1 or SEQ ID NO:2 as well as the sodium channel inhibitor amiloride. The current dissipations thus obtained were stored and analyzed by means of the program PCLAMP 6.0.

Structure (SMILES)	improvement in the lung function (increased oxygen content in arterial blood) [1]	oxygen content of the arterial blood, % relative to the value before rinsing the lungs [1] [%]	oxygen content in the blood after administering protein [1]	release of the inflammation marker IL-6 [2]	activation of the sodium ion channels (amplitude of electrical signal) [3]	Concentration of Interleukin-6 (average of three measurements) ([2]; 1 ng/ml)	Concentration of Interleukin-6 (average of three measurements) ([2]; 3 ng/ml)	Concentration of Interleukin-6 (average of three measurements) ([2]; 1 μg/ml)	Concentration of Interleukin-6 (average of three measurements) ([2]; 10 μg/ml)
CC[C@H](C)[C@H](NC(=O)[C@H](C)NC(=O)[C@H](CO)NC(=O)[C@H](CC(C)C)NC(=O)[C@H](CC(C)C)NC(=O)[C@H](CC(N)=O)NC(=O)[C@@H](N)C(C)C)C(=O)N[C@H]1CCCCNC(=O)CC[C@@H](C(=O)N2CCC[C@H]2C(=O)N[C@H](C(=O)N[C@@H](Cc2ccc(O)cc2)C(=O)N[C@@H](CC(C)C)C(=O)NCC(=O)O)[C@@H](C)CC)NC(=O)[C@H](Cc2ccc(O)cc2)NC(=O)[C@H](Cc2c[nH]c3ccccc23)NC(=O)[C@@H]2CCCN2C(=O)[C@H](CCCCN)NC(=O)[C@H](C)NC(=O)[C@H](CCC(=O)O)NC(=O)[C@H](C)NC(=O)CNC(=O)[C@H](CCC(=O)O)NC(=O)[C@@H]2CCCN2C(=O)[C@H]([C@@H](C)O)NC(=O)[C@H](CCC(=O)O)NC(=O)[C@H](CCCNC(=N)N)NC(=O)[C@H](CCC(N)=O)NC(=O)CNC(=O)[C@@H]2CCCN2C(=O)[C@H](CO)NC1=O [SEQ ID NO:1] (H-VNLLSAIKSPGQRETPEGAEAKPWYEPIYLG-OH; lactam 8-26)	distinct improvement in the lung function	62	increased	cannot be detected	activation of the sodium ion channels				
C[C@@H]1NC(=O)CNC(=O)[C@H](CCC(=O)O)NC(=O)[C@@H]2CCCN2C(=O)[C@H]([C@@H](C)O)NC(=O)[C@H](CCC(=O)O)NC(=O)[C@H](CCCNC(=N)N)NC(=O)[C@H](CCC(N)=O)NC(=O)CNC(=O)[C@@H]2CCCN2C(=O)[C@H](CO)NC(=O)[C@@H](N)CCCCNC(=O)CC[C@@H](C(=O)O)NC(=O)[C@H](Cc2ccc(O)cc2)NC(=O)[C@H](Cc2c[nH]c3ccccc23)NC(=O)[C@@H]2CCCN2C(=O)[C@H](CCCCN)NC(=O)[C@H](C)NC(=O)[C@H](CCC(=O)O)NC1=O [SEQ ID NO:2, (NH2)Lys-Ser-Pro-Gly-Gln-Arg-Glu-Thr-Pro-Glu-Gly-Ala-Glu-Ala-Lys-Pro-Trp-Tyr-Glu(COOH)]	distinct improvement in the lung function	75	increased	cannot be detected; also recorded: virtually no inflammation marker IL-6 is released	activation of the sodium ion channels	less than 0.5 pg/ml	less than 0.5 pg/ml	less than 0.5 pg/ml	less than 0.5 pg/ml
